Target: T1, human LMPTP-A (Homo sapiens, UniProt P24666)
T1 sequence (P24666 1-158): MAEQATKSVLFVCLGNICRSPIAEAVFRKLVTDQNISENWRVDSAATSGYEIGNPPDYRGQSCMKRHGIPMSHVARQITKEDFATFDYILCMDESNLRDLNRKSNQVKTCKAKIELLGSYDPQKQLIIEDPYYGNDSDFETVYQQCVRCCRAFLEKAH
Experiment: Enzyme Assay of Inhibition of LMPTP-A (phosphatase assay, OMFP or pNPP substrate)
Assay type: biochemical
Settings: Bis-Tris pH 6.0, 37° C.
In short: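 Buffer 50 mM Bis-Tris pH 6.0, 1 mM DTT, 0.01% Triton X-100, 37 °C; OMFP read continuously (485/525 nm) or pNPP stopped with NaOH, 405 nm. IC50 from concentration vs % activity. Selectivity: 40 μM compound with 0.4 mM OMFP or 5 mM pNPP; reversibility: 50 nM enzyme, 10 μM compound, 5 min, 100× dilution.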

Compound	IC50 [nM]
CCN(CC)C(=O)c1ccc(-c2cc(NCCCN3CCN(C)CC3)c3cnccc3n2)cc1 [N,N-diethyl-4-(4-(3-(4-methylpiperazin-1-yl)propylamino)-1,6-naphthyridin-2-yl)benzamide]	1000 to 20000
CN1CCC(CCNC(=O)/C=C/c2ccc(-c3cc(NCCCN4CCCCC4)c4cnccc4n3)o2)CC1 [(E)-N-(2-(1-Methylpiperidin-4-yl)ethyl)-3-(5-(4-((3-(piperidin-1-yl)propyl)amino)-1,6-naphthyridin-2-yl)furan-2-yl)acrylamide]	1000 to 20000
O=C(NC1CCNCC1)c1cc2ccc(-c3cc(NCCCN4CCCCC4)c4cnccc4n3)cc2[nH]1 [6-(4-(3-(Piperidin-1-yl)propylamino)-1,6-naphthyridin-2-yl)-N-(piperidin-4-yl)-1H-indole-2-carboxamide]	1000 to 20000
CCN(CC)C(=O)COCc1ccc(-c2cc(NCCCN3CCCCC3)c3cnccc3n2)cc1 [N,N-diethyl-2-((4-(4-((3-(piperidin-1-yl)propyl)amino)-1,6-naphthyridin-2-yl)benzyl)oxy)acetamide]	1000 to 20000
CN1CCC(NC(=O)/C=C/c2ccc(-c3cc(NCCCN4CCCCC4)c4cnccc4n3)cc2)CC1 [(E)-N-(1-Methylpiperidin-4-yl)-3-(4-(4-(3-(piperidin-1-yl)propylamino)-1,6-naphthyridin-2-yl)phenyl)acrylamide]	≤ 1000
Cn1c(C(=O)NC2CCSCC2)cc2cc(-c3cc(NCCCN4CCCCC4)c4cnccc4n3)ccc21 [1-methyl-5-(4-(3-(piperidin-1-yl)propylamino)-1,6-naphthyridin-2-yl)-N-(tetrahydro-2H-thiopyran-4-yl)-1H-indole-2-carboxamide]	≤ 1000
CCN(CC)C(=O)c1ccc(-c2cc(NCCN3CCOCC3)c3cnccc3n2)cc1 [N,N-diethyl-4-(4-(2-morpholinoethylamino)-1,6-naphthyridin-2-yl)benzamide]	1000 to 20000
CCN(CC)C(=O)/C=C/c1ccc(-c2cc(Nc3ccc(CN4CCCC4)cc3)c3cnccc3n2)cc1 [(E)-N,N-Diethyl-3-(4-(4-((4-(pyrrolidin-1-ylmethyl)phenyl)amino)-1,6-naphthyridin-2-yl)phenyl)acrylamide]	1000 to 20000
CN1CCC(NC(=O)c2cc3cc(-c4cc(Nc5ccc(CN6CCCC6)cc5)c5cnccc5n4)ccc3n2C)CC1 [1-methyl-N-(1-methylpiperidin-4-yl)-5-(4-((4-(pyrrolidin-1-ylmethyl)phenyl)amino)-1,6-naphthyridin-2-yl)-1H-indole-2-carboxamide]	≤ 1000
CCN(CC)C(=O)c1ccc(-c2cc(NCCCN3CCCCC3)c3cncc(Br)c3n2)cc1 [4-(8-Bromo-4-((3-(piperidin-1-yl)propyl)amino)-1,6-naphthyridin-2-yl)-N,N-diethylbenzamide]	≥ 20000
CCN(CC)C(=O)c1ccc(-c2cc(NCCCN3CCCCC3)c3cncc(C)c3n2)cc1 [N,N-Diethyl-4-(8-methyl-4-((3-(piperidin-1-yl)propyl)amino)-1,6-naphthyridin-2-yl)benzamide]	≥ 20000
O=C(NC1CCNCC1)c1ccc(-c2cc(NCCCN3CCCCC3)c3cnccc3n2)cc1 [4-(4-((3-(piperidin-1-yl)propyl)amino)-1,6-naphthyridin-2-yl)-N-(piperidin-4-yl)benzamide]	≤ 1000
CN1CCCC(CCNC(=O)C#Cc2ccc(-c3cc(NCCCN4CCCCC4)c4cnccc4n3)cc2)CC1 (stereo not drawn)	1000 to 20000
Cn1c(C(=O)NCCc2ccncc2)cc2cc(-c3cc(NCCCN4CCCCC4)c4cnccc4n3)ccc21 [1-methyl-5-(4-((3-(piperidin-1-yl)propyl)amino)-1,6-naphthyridin-2-yl)-N-(2-(pyridin-4-yl)ethyl)-1H-indole-2-carboxamide]	≤ 1000
O=C(COCc1ccc(-c2cc(NCCCN3CCCCC3)c3cnccc3n2)cc1)NCC1CCNCC1 [2-(4-(4-(3-(piperidin-1-yl)propylamino)-1,6-naphthyridin-2-yl)benzyloxy)-N-(piperidin-4-ylmethyl)acetamide]	≤ 1000
CCN1CCN(C(=O)c2cc3ccc(-c4cc(NCCCN5CCCCC5)c5cnccc5n4)cc3s2)CC1 [(4-ethylpiperazin-1-yl)(6-(4-(3-(piperidin-1-yl)propylamino)-1,6-naphthyridin-2-yl)benzo[b]thiophen-2-yl)methanone]	1000 to 20000
O=C(NCCc1ccncc1)c1ccc(-c2cc(NCCCN3CCCCC3)c3cnccc3n2)cc1 [4-(4-((3-(piperidin-1-yl)propyl)amino)-1,6-naphthyridin-2-yl)-N-(2-(pyridin-4-yl)ethyl)benzamide]	≤ 1000

Next, values leading:

IC50 [nM]	Compound
≤ 1000	CCN(CC)C(=O)c1ccc(-c2cc(NCCCN3CCCCC3)c3cnccc3n2)c(C(F)(F)F)c1 [N,N-diethyl-4-(4-((3-(piperidin-1-yl)propyl)amino)-1,6-naphthyridin-2-yl)-3-(trifluoromethyl)benzamide]
≤ 1000	CN1CCCN(CCNC(=O)COCc2ccc(-c3cc(NCCCN4CCCCC4)c4cnccc4n3)cc2)CC1 [N-(2-(4-methyl-1,4-diazepan-1-yl)ethyl)-2-(4-(4-(3-(piperidin-1-yl)propylamino)-1,6-naphthyridin-2-yl)benzyloxy)acetamide]
≤ 1000	CN1CCC(NC(=O)CCc2ccc(-c3cc(NC4CCN(C)CC4)c4cnccc4n3)cc2)CC1 [N-(1-Methylpiperidin-4-yl)-3-(4-(4-(1-methylpiperidin-4-ylamino)-1,6-naphthyridin-2-yl)phenyl)propanamide]
≤ 1000	CN1CCC(NC(=O)CCOCc2ccc(-c3cc(NCCCN4CCCCC4)c4cnccc4n3)cc2)CC1 [N-(1-Methylpiperidin-4-yl)-3-(4-(4-(3-(piperidin-1-yl)propylamino)-1,6-naphthyridin-2-yl)benzyloxy)propanamide]
≤ 1000	CN1CCC(CNC(=O)COCc2ccc(-c3cc(NCCCN4CCCCC4)c4cnccc4n3)cc2)CC1 [N-((1-methylpiperidin-4-yl)methyl)-2-(4-(4-(3-(piperidin-1-yl)propylamino)-1,6-naphthyridin-2-yl)benzyloxy)acetamide]
1000 to 20000	CN1CCC(NC(=O)c2ccc(-c3cc(NCCCN4CCCCC4)c4cnccc4n3)cn2)CC1 [N-(1-methylpiperidin-4-yl)-5-(4-((3-(piperidin-1-yl)propyl)amino)-1,6-naphthyridin-2-yl)picolinamide]
1000 to 20000	CN(C)CCNC(=O)c1cc2ccc(-c3cc(NCCCN4CCCCC4)c4cnccc4n3)cc2[nH]1 [N-(2-(Dimethylamino)ethyl)-6-(4-(3-(piperidin-1-yl)propylamino)-1,6-naphthyridin-2-yl)-1H-indole-2-carboxamide]
1000 to 20000	CN(C)CCNC(=O)c1cc2ccc(-c3cc(NCCCN4CCCCC4)c4cnccc4n3)cc2s1 [N-(2-(dimethylamino)ethyl)-6-(4-(3-(piperidin-1-yl)propylamino)-1,6-naphthyridin-2-yl)benzo[b]thiophene-2-carboxamide]
1000 to 20000	CCN(CC)C(=O)c1ccc(-c2cc(NC3CCOCC3)c3cnccc3n2)cc1 [N,N-diethyl-4-(4-(tetrahydro-2H-pyran-4-ylamino)-1,6-naphthyridin-2-yl)benzamide]
≤ 1000	CN1CCC(NC(=O)c2ccc(-c3cc(NC4CCOCC4)c4cnccc4n3)cc2)CC1 [N-(1-Methylpiperidin-4-yl)-4-(4-((tetrahydro-2H-pyran-4-yl)amino)-1,6-naphthyridin-2-yl)benzamide]
